In article PMC10783051 (Microbiology Spectrum, 2023):
Entries after “also recorded” stand apart in the source; their conditions may differ.

How the values were obtained:
[1] = system: S. venezuelae supernatant (secreted enzymes); assay: In vitro degradation of CLPs by S. venezuelae cell-free supernatant; format: in vitro ADME, Streptomyces venezuelae ATCC 10712; details: shaking 180 rpm; for degradation of Pseudomonas CLPs by Sv CFS: Pseudomonas CFS (CAA medium) supplemented with 4% (vol/vol) Sv CFS, 24 h at 30°C, UPLC-MS and MS/MS, degraded to different degrees
Procedure: S. venezuelae cultures were performed on ISP2 medium at 28°C (yeast extract 4 g/L, malt extract 10 g/L, glucose 4 g/L, agar 20 g/L; pH 7.3). On 12 × 12 cm Petri square plates, three stripes (1 × 12 cm) of spores were inoculated with a cotton swab [40 µL of spores suspension (10^7 spores/mL) each], spaced by 3 cm each. The plates were left for 7 days of incubation. Next, the agar media was recovered and placed in Falcon tubes at −20°C for 24 h. Then, the agar media were defrosted at room temperature and centrifuged (8,000 rpm for 20 min). Finally, the supernatant leaked from the agar was collected, filtered sterilized (0.22-µm pore size filters) and stored at −20°C until further use. The heat-treated Sv supernatant was generated by incubating an aliquot of the cell-free supernatant of Sv for 10 min at 98°C. The supernatant was then filtered (0.22-µm pore size filters) and stored at −20°C until further use.
[…] Then the solutions were incubated for 24 h at 30°C with continuous shaking (180 rpm). Next, the solution were centrifuged (1 min at 10,000 rpm), filtered (0.22-µm pore size filters), and analyzed by UPLC-MS.
The degradation assays of Pseudomonas CLPs were performed using CFS generated as described above. They were supplemented by 4% (vol/vol) of S. venezuelae CFS prepared as described previously. Next, the solutions were incubated for 24 h at 30°C with continuous shaking (180 rpm). Then, the solution were centrifuged (1 min at 10,000 rpm), filtered (0.22-µm pore size filters), and analyzed by UPLC-MS.
For the CLP degradation kinetic experiments, surfactin, iturin, and fengycin solutions supplemented with S. venezuelae supernatant were prepared following the same protocol. Twenty microliters of solution was sampled at each time point and directly mixed with 80 µL of acetonitrile to stop enzymatic degradation. Finally, they were stored at −20°C until analysis by UPLC-MS.
All UPLC-MS analyses were performed using an Agilent 1290 Infinity II coupled with a diode array detector and a mass detector (Jet Stream ESI-Q-TOF 6530) in positive mode with the parameters set up as follows: capillary voltage of 3.5 kV, nebulizer pressure of 35 lb/in^2, drying gas of 8 L/min, drying gas temperature of 300°C, flow rate of sheath gas of 11 L/min, sheath gas temperature of 350°C, fragmentor voltage of 175 V, skimmer voltage of 65 V, and octopole radiofrequency of 750 V. Accurate mass spectra were recorded in the m/z range of 300–1,700. For untargeted MS/MS, we used the same MS1 parameters as described. We added MS2 untargeted acquisition mode with the parameters as follows: MS/MS range 50–1,700 m/z; MS/MS scan rate 3 spectra/s; isolation width MS/MS medium (approx. 4 AMU), Decision Engine Native; fixed collision energies of 25 and 40 V for surfactin, 50 V for iturin, and 60 V for fengycin experiments; precursor selection: three for the surfactin experiment, four for the iturin and fengycin experiments, threshold 1,500 (Abs), isotope model common, active exclusion after two spectra and release after 0.5 min, sorting the precursors by charge state then abundance (charge state preference 1). For targeted MS/MS, we used the same MS1 parameters MS/MS range of 50–1,700 m/z or 50–3,200 (when required for Pseudomonas CLPs with mass >1,700 Da), MS/MS scan rate 3 spectra/s, isolation width MS/MS narrow (approx. 1.3 amu), and fixed collision energies 20, 40, and 60V. In all experiments, a C18 Acquity UPLC ethylene bridged hybrid column (2.1 mm × 50 mm × 1.7 µm; Waters Corporation, Milford, MA, USA) was used at a flow rate of 0.6 mL/min and a temperature of 40°C. The injection volume was 20 µL, and the diode array detector scanned a wavelength spectrum between 190 and 600 nm. Unless otherwise mentioned, a gradient of acidified water (0.1% formic acid) (solvent A) and of acidified acetonitrile (0.1% formic acid) (solvent B) was used as mobile phase with a constant flow rate of 0.6 mL/min, starting at 10% B and rising to 100% B in 20 min. […]

[2] = system: Streptomyces venezuelae ATCC 10712; assay: Confrontation assay B. velezensis GA1 / S. venezuelae on REM plate, UPLC-MS metabolite profiling of the agar; details: gelified REM, 3 days at 26°C
Procedure: Confrontation assays were performed on square Petri dishes (12 × 12 cm) with 40 mL of REM solid medium at 26°C (REM supplemented with 14 g/L of agar).
S. venezuelae ATCC 10712 was inoculated as stripes (1 × 12 cm) in the middle of the plate with 40 µL of spore suspension (10^7 spores/mL) and spread with a cotton swab. Next, B. velezensis GA1 cells were collected from fresh precultures as described and adjusted to OD600 nm 0.1. Then, 5 µL of B. velezensis GA1 suspension was spotted at 1 cm of the Streptomyces line. Control plates were done following the same procedure without the inoculation of either Bacillus or Streptomyces. Plates were then incubated for 3 days at 26°C in the dark. Pictures of the plates were then captured using a CoolPix camera (NIKKOR ×60 wide optical zoom extra-low dispersion vibration reduction 4.3–258.0 mm 1:33 to 6.5).
The extraction of the metabolites from the agar was performed as follows. For the confrontation experiment, we precisely sampled the area of agar (2 × 1 cm) near the colony of Bacillus or Streptomyces (the confrontation zone is 1 cm wide) with standardized plugs. For the in planta, we sampled the agar area (1 × 1 cm) near the tomato roots. In both cases, the agar samples were transferred to Eppendorf tubes and placed for 24 h at −20°C. Then, the agar was thawed at room temperature and centrifuged for 10 min at 13,000 rpm. The supernatants were then collected and filtered (0.22-µm pore size filters) before UPLC-MS analysis.
All UPLC-MS analyses were performed using an Agilent 1290 Infinity II coupled with a diode array detector and a mass detector (Jet Stream ESI-Q-TOF 6530) in positive mode with the parameters set up as follows: capillary voltage of 3.5 kV, nebulizer pressure of 35 lb/in^2, drying gas of 8 L/min, drying gas temperature of 300°C, flow rate of sheath gas of 11 L/min, sheath gas temperature of 350°C, fragmentor voltage of 175 V, skimmer voltage of 65 V, and octopole radiofrequency of 750 V. Accurate mass spectra were recorded in the m/z range of 300–1,700. For untargeted MS/MS, we used the same MS1 parameters as described. We added MS2 untargeted acquisition mode with the parameters as follows: MS/MS range 50–1,700 m/z; MS/MS scan rate 3 spectra/s; isolation width MS/MS medium (approx. 4 AMU), Decision Engine Native; fixed collision energies of 25 and 40 V for surfactin, 50 V for iturin, and 60 V for fengycin experiments; precursor selection: three for the surfactin experiment, four for the iturin and fengycin experiments, threshold 1,500 (Abs), isotope model common, active exclusion after two spectra and release after 0.5 min, sorting the precursors by charge state then abundance (charge state preference 1). For targeted MS/MS, we used the same MS1 parameters MS/MS range of 50–1,700 m/z or 50–3,200 (when required for Pseudomonas CLPs with mass >1,700 Da), MS/MS scan rate 3 spectra/s, isolation width MS/MS narrow (approx. 1.3 amu), and fixed collision energies 20, 40, and 60V. In all experiments, a C18 Acquity UPLC ethylene bridged hybrid column (2.1 mm × 50 mm × 1.7 µm; Waters Corporation, Milford, MA, USA) was used at a flow rate of 0.6 mL/min and a temperature of 40°C. The injection volume was 20 µL, and the diode array detector scanned a wavelength spectrum between 190 and 600 nm. Unless otherwise mentioned, a gradient of acidified water (0.1% formic acid) (solvent A) and of acidified acetonitrile (0.1% formic acid) (solvent B) was used as mobile phase with a constant flow rate of 0.6 mL/min, starting at 10% B and rising to 100% B in 20 min. Solvent B was kept at 100% for 4 min before going back to the initial ratio. MassHunter Workstation (version 10.0) and ChemStation software were used for data collection and analysis. For untargeted analysis of iturin and fengycin degradation products, we used the same solvent and flow rate, starting at 10% B to 20% in 2 min, then rising to 50% B at 14 min and 100% B at 25 min, followed by 100% B and 5 at 10% B at 6 min.

Streptomyces [3] = details: cited from earlier work
From the text: Therefore, we hypothesized that Sv may catabolize those exogenous CLPs and use them as nutritional sources. […] (Fig. 2E and F). Extraction of the me ...

Streptomyces [4] = details: cited from earlier work
[5] = Sv cell-free supernatant (CFS); details: Streptomyces venezuelae ATCC 10712, 30°C, up to 24 h; time course up to 48 h
[6] = Sv cultures grown on gelified GA1 ΔbaeJ-mlnA-dfnA CFS; details: Streptomyces venezuelae, 28°C, up to 3 days
[7] = rhizosphere extracts (agar near tomato roots co-inoculated with Bv and Sv, Hoagland solid medium); details: Streptomyces venezuelae ATCC 10712 / Bacillus velezensis GA1-GFP on tomato (Solanum lycopersicum var. Moneymaker), 22°C, up to 7 days
[8] = confrontation zone between B. velezensis GA1 and S. venezuelae ATCC 10712 on REM solid medium (agar extract); details: Streptomyces venezuelae ATCC 10712 / Bacillus velezensis GA1, 26°C, up to 3 days

VSLVVQLVDhbTIHseDabK (lariat or depsi) [sessilin, Pseudomonas cyclic lipopeptide, tested in Pseudomonas cell-free supernatant]
degradation of Pseudomonas CLPs by Sv CFS [1]: degraded

orfamide
degradation of Pseudomonas CLPs by Sv CFS [1]: degraded

xantholisin
degradation of Pseudomonas CLPs by Sv CFS [1]: degraded

putisolvin
degradation of Pseudomonas CLPs by Sv CFS [1]: degraded

fengycin
degradation of pure Bacillus CLPs by Sv CFS ([1]; pure CLPs (100 µM) incubated 24 h at 30°C with 4% (vol/vol) Sv CFS (grown on ISP2, 0.22-µm filtered), UPLC-MS/MS with feature-based molecular networking): degrades | shorter CLP fragment detected in the confrontation zone but not in Bv monoculture ([2]; UPLC-MS, MS/MS): loss of the terminal isoleucine | abundance of the CLP in the confrontation zone compared with monocultures ([2]; agar extract of confrontation zone, UPLC-Q-TOF-MS peak areas, three biological replicates): decrease in the abundance

difficidin
toxicity toward Streptomyces (Streptomyces [3]): toxicity

macrolactin
toxicity toward Streptomyces (Streptomyces [3]): toxicity

C/C(=C/C=C/C=C/C(C)C(=O)O)NC(=O)CC(O)\C(C)=C/C=C\C=C(C)\C=C\C=C/C=C/CNC(=O)C(O)CC(C)C (centres unmarked) [bacillaene]
toxicity toward Streptomyces (Streptomyces [3]): toxicity

Fa Glu Leu Leu Val Asp Leu Leu
fragment found (Streptomyces [4]): linear surfactin | cleaved bond [5]: Fa-E and E-L and L-L and L-V | fragment found [5]: Linear surfactin, first_seen and FaEL | fragment found [6]: Linear surfactin; also recorded: ELLVDLL; also recorded: LLVDLL | fragment found [7]: linear surfactins; also recorded: ELLVDLL | cleaved bond [8]: Fa-E | fragment found [8]: Linear surfactin
